Assay results published in patent US20220062205A1, “TREATMENT OF GASTROINTESTINAL DISORDERS AND SYMPTOMS THEREOF” (Indiana University Research and Technology Corporation, priority 2018, published 2022).

What was measured:
[1] = test system: Winnie mice; experiment: Clinical symptoms (body weight, rectal prolapse, faecal water content) in Winnie mice treated with APX3330; type: in vivo, mouse; conditions: for Daily Body Weight: mean, SEM in line below, in % (unit assumed)
Excerpt: In this Example, the murine model of IBD named Winnie, in which spontaneous chronic colitis results from a primary intestinal epithelial defect conferred by a mutation in the Muc2 mucin gene, was used to analyze the symptoms of IBD and the effects of treatment with APX3330. Although other models of chronic intestinal inflammation have been developed (e.g., IL-10 knockout), most of them are environment-dependent (attain inflammation only in the presence of pathogenic bacteria). Further, unlike other models, mild spontaneous inflammation in the colorectum is developed in all Winnie mice by 6 weeks of age (young adults) in pathogen-free conditions; it progresses over time and results in severe colitis by the age of 12-16 weeks. This is due to a thinner mucus layer allowing increased intestinal permeability and thus enhanced susceptibility to luminal toxins normally within the gut. In humans, Muc2 production and secretion are reduced leading to a thinner mucosal layer and increased intestinal permeability. Winnie mice (Win/Win) display symptoms of diarrhoea (not watery), ulcerations, rectal bleeding and pain at the acute stages of colitis similar to those in human IBD. The Winnie murine model of chronic colitis (12 w.o.; 15-35 g; n=24) were attained from Victoria University Werribee Animal Facility (Melbourne, Australia) to determine the effectiveness of APX3330 on mechanisms of oxidative stress. Treated Winnie mice were paralleled to a control C57BL/6 group (12 w.o.; 20-30 g; n=12) inclusive of female and male mice. All mice were acclimatized for 3 days prior to receiving in vivo intraperitoneal (IP) injections. All mice were housed at Western Centre for Health, Research and Education (WCHRE, Melbourne, Victoria, Australia) in a temperature-controlled environment with a 12-hour day/night cycle. All animals had free access to food and water with […] efforts made to minimize any suffering. All experimental procedures in this Example were conducted in agreement to the Australian National Health and Medical Research Council (NHMRC) guidelines and approved by Victorian University Animal Experimentation Ethic Committee (AEEC) under animal ethics AEETH 13/001 and AEC 17/016. The small molecular APE1/Ref-1 antagonist; APX3330, was administered via IP injections in Winnie mice at a dose of 25 mg/kg (30 G needle, max volume 200 μl) dissolved in Cremphore (2%) (Sigma-Aldrich): Ethanol (2%) in sterile water (96%). Mice received alternating IP injections twice a day with 12-hour intervals, over the course of two weeks during predominate intestinal inflammation. Winnie-sham treated mice received vehicle injections excluding APX3330 drugs. All mice were monitored, weighed and faecal pellets were collected over the course of treatment.

[2] = test system: Winnie mice; experiment: Ex vivo whole organ bath colonic motility of colons from treated mice; type: in vivo, mouse; conditions: excised whole colons of treated Winnie mice; mean±SEM, n=5
Method: The small molecular APE1/Ref-1 antagonist; APX3330, was administered via IP injections in Winnie mice at a dose of 25 mg/kg (30 G needle, max volume 200 μl) dissolved in Cremphore (2%) (Sigma-Aldrich): Ethanol (2%) in sterile water (96%). Mice received alternating IP injections twice a day with 12-hour intervals, over the course of two weeks during predominate intestinal inflammation. Winnie-sham treated mice received vehicle injections excluding APX3330 drugs. All mice were monitored, weighed and faecal pellets were collected over the course of treatment. Colonic motility experiments were completed ex vivo. Whole colons were removed from control C57BL/6, Winnie-sham treated and Winnie-APX3330 treated mice. Colons were positioned horizontally cannulated at the oral and anal end in an organ bath superfused with carbogenated (composition in mM: NaCl 118, KCl 4.6, CaCl2 3.5, MgSO4 1.2, NAH2PO4 1, NaHCO3 25 and d-Glucose; carbongenated with 95% O2 and 5% CO2) ×1 Krebs solution whilst maintained at a temperature of 37° C. The oral cannula was connected to a reservoir with 1× Krebs solution that was adjusted to maintain intraluminal pressure (0 to +2 cm H2O). The anal end was coupled to an out-flow tube with a maximum 2 cm H2O backpressure. A recording was made by a video camera being positioned above the organ bath, this recorded the colonic contractile activity. Tissue were left to equilibrate for 30 minutes prior to 2× 20-minute recordings at increasing intraluminal pressure. Videos were transposed into spatiotemporal maps with Scribble v2.0 software and were analysed by using MATLAB, v2017a software to assess parameters of colonic motility.

## CCCCCCCCCC(=CC1=C(C)C(=O)C(OC)=C(OC)C1=O)C(=O)O [APX3330]
[1]; Day 1, relative to initial weight, 25 mg/kg IP twice a day
  Daily Body Weight: 102
[1]; Day 2, relative to initial weight, 25 mg/kg IP twice a day
  Daily Body Weight: 100
[1]; Day 3, relative to initial weight, 25 mg/kg IP twice a day
  Daily Body Weight: 101
[1]; Day 4, relative to initial weight, 25 mg/kg IP twice a day
  Daily Body Weight: 101
[1]; Day 5, relative to initial weight, 25 mg/kg IP twice a day
  Daily Body Weight: 100
[1]; Day 6, relative to initial weight, 25 mg/kg IP twice a day
  Daily Body Weight: 100
[1]; Day 7, relative to initial weight, 25 mg/kg IP twice a day
  Daily Body Weight: 98
[1]; Day 8, relative to initial weight, 25 mg/kg IP twice a day
  Daily Body Weight: 98
[1]; Day 9, relative to initial weight, 25 mg/kg IP twice a day
  Daily Body Weight: 98
[1]; Day 10, relative to initial weight, 25 mg/kg IP twice a day
  Daily Body Weight: 99
[1]; Day 11, relative to initial weight, 25 mg/kg IP twice a day
  Daily Body Weight: 99
[1]; Day 12, relative to initial weight, 25 mg/kg IP twice a day
  Daily Body Weight: 99
[1]; Day 13, relative to initial weight, 25 mg/kg IP twice a day
  Daily Body Weight: 99
[1]; by day 14 of treatments, 25 mg/kg IP twice a day
  rectal prolapse, edema and bleeding: reduced
[1]; day 14, 25 mg/kg IP twice a day, mean±SEM, n=7
  faecal water content: 73.2±2.1%
[2]
  proportional length of colonic migrating motor complexes (CMMCs): 73±1.0%
  proportional short contraction length (<50% of colon length): 33.9±3.8%
  total length of colonic contractions relative to total colon length: 62.3±2.4%
